Assays:
human 5-HT1A receptor [1] = target: T1, human 5-HT1A receptor (Homo sapiens (Human), UniProt P08908); assay: Test 1: binding activity for human 5-HT1A receptor ([3H]8-OH-DPAT, CHO cell membrane fraction)
Procedure: (§1) Test 1: Evaluation of Binding Activity for Human 5-HT1A Receptor, Human 5-HT2A Receptor, and Human D2 Receptor
(§2) Binding affinity of the present compound for human 5-HT1A receptor, human 5-HT2A receptor, and human D2 receptor was measured by the following procedures.
(§3) Each mixture was incubated at room temperature for 60 minutes. Then, the mixture was added quickly on a glassfiber filter plate (Multiscreen FB, Millipore, Inc.) coated with 0.3% aqueous polyethylenimine, and vacuum-filtered. Radioactivity remaining on the filter was measured with a liquid scintillation counter (PerkinElmer, Inc.). Binding inhibition rate was calculated from the following formula.
IC50 value was calculated by Hill analysis (Physiology, 1910, 40, 190-200). Ki of each compound was calculated from the following formula. Binding inhibition constant (Ki)=IC50/(1+S/Kd) wherein S is concentration of ligand; Kd is a binding dissociation constant of ligand to membrane, which is calculated from a saturated binding experiment conducted with the same cell membrane. A small Ki value means strong binding ability to a receptor.

human D2 receptor = human D2 receptor (Homo sapiens (Human), UniProt P14416); assay: Test 1: binding activity for human D2 receptor ([3H]Spiperone, CHO cell membrane fraction); conditions: human D2 receptor, [3H]Spiperone
Procedure: as §1, §2, §3
Ki of each compound was calculated from the following formula. Binding inhibition constant (Ki)=IC50/(1+S/Kd) wherein S is concentration of ligand; Kd is a binding dissociation constant of ligand to membrane, which is calculated from a saturated binding experiment conducted with the same cell membrane. A small Ki value means strong binding ability to a receptor.

human 5-HT1A receptor [2] = target: T1, human 5-HT1A receptor; assay: Test 2: agonist activity for human 5-HT1A receptor ([35S]GTPγS binding); assay type: biochemical; conditions: for EC50: [35S]GTPγS binding, concentration at which half the activity of Emax was obtained; for Emax at 10 µM: agonist activity in the presence of 10 μM of compound, relative to 100 μmol/L 5-HT
Procedure: Test 2: Evaluation of Agonist Activity for Human 5-HT1A Receptor
CHO cell membrane fraction in which human 5-HT1A receptor was expressed as used in Test 1 was purchased. To a buffer containing guanosine diphosphate were added a test compound dissolved in DMSO, each receptor membrane sample diluted with buffer, and [^35S] Guanosine 5′-O-[gamma-thio]triphosphate (GTPγS). The mixture was incubated at room temperature for 60 minutes. Then, the mixture was added quickly on a glassfiber filter plate (Multiscreen FB, Millipore, Inc.), and vacuum-filtered. Radioactivity remaining on the […] was measured with a liquid scintillation counter. Agonist activity was calculated from the following formula.

[3] = Test 4: metabolic stability test in human hepatic microsome; assay type: in vitro ADME; conditions: 0.1 mg/mL microsome, 0.1 μmol/L compound, 37° C., 30 minutes
Procedure: Test 4: Metabolic Stability Test in Human Hepatic Microsome
The stability of the present compound in human hepatic microsome metabolism was evaluated as mentioned below. Human hepatic microsome was obtained from Xenontech. Human hepatic microsome, NADPH, and each test compound were mixed in 25 mmol/L phosphate buffer solution (pH 7.4) to reach the following concentrations as shown below, and the mixture was incubated at 37° C. for 30 minutes. • Human hepatic microsome: 0.1 mg/mL • NAPDH: 3.2 mmol/L • Test compound: 0.1 μmol/L
The residual ratio of the test compound in each sample after 30 minutes was measured by LC-MS, and the metabolic stability in human hepatic microsome was calculated from the following formula. Metabolic stability in human hepatic microsome (mL/min/mg protein)=−LN (residual ratio)/30/0.1

hERG channel = hERG channel (Homo sapiens (Human), UniProt Q12809); assay: Test 6-1: inhibitory activity for hERG channel (auto patch clamp, Qpatch); assay type: cell-based; conditions: whole cell auto patch clamp, hERG-CHO cells; read-out: hERG inhibition IC50
Procedure: Test 6-1: Evaluation of Inhibitory Activity for hERG Channel
Inhibitory activity of the present compound for hERG channel was measured by whole cell patch clamp method with an auto patch clamp system using CHO cells in which hERG channel involved in human rapidly activating delayed rectifier potassium current (IKr) was forcibly expressed.
hERG-CHO cells purchased from ChanTest Cop. were cultured in a CO2 incubator at 37° C., and dissociated from a flask with trypsin shortly before the measurement of hERG current, to prepare a cell suspension.
Extracellular fluid: 2 mmol/L CaCl2, 1 mmol/L MgCl2, 10 mmol/L HEPES, 4 mmol/L KCl, 145 mmol/L NaCl, 10 mmol/L Glucose
Intracellular fluid: 5.4 mmol/L CaCl2, 1.8 mmol/L MgCl2, 10 mmol/L HEPES, 31 mmol/L KOH, 10 mmol/L EGTA, 120 mmol/L KCl, 4 mmol/L Na2-ATP
Test compound solution: Test compound was dissolved in DMSO to reach the concentration of 2 mmol/L or 20 mmol/L, in order to prepare a test compound solution. […] (Measurement of Current Value and Data Analysis)
The cell suspension, the extracellular fluid, the intracellular fluid, and the measurement plate were set in the auto patch clamp system, and hERG current was measured by whole cell patch clamp method. […] Each pulse interval was 15 seconds. The data analysis was carried out with Qpatch Assay Software (Biolin Scientific). The test was carried out by applying incrementally 4 concentrations of each test compound, and the average of the maximum peak tail currents which were obtained from the last 3 stimulations in each concentration was determined as the evaluated data. Based on the current inhibition rate for a pre-applied current at each concentration of each test compound, IC50 value was calculated by Hill equation with the software.

human D2 receptor, sequence (P14416 whole entry): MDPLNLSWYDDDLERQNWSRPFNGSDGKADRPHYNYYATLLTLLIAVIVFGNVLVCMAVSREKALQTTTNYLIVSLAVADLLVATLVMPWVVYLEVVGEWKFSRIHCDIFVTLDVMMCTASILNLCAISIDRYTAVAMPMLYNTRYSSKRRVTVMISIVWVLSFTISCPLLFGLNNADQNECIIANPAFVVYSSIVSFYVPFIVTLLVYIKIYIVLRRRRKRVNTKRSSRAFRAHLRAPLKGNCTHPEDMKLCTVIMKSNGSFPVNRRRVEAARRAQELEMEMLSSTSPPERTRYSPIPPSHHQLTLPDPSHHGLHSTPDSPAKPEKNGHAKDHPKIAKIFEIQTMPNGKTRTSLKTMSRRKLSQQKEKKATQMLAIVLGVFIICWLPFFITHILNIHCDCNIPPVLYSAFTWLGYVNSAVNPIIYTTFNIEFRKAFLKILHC
T1 sequence (P08908 whole entry): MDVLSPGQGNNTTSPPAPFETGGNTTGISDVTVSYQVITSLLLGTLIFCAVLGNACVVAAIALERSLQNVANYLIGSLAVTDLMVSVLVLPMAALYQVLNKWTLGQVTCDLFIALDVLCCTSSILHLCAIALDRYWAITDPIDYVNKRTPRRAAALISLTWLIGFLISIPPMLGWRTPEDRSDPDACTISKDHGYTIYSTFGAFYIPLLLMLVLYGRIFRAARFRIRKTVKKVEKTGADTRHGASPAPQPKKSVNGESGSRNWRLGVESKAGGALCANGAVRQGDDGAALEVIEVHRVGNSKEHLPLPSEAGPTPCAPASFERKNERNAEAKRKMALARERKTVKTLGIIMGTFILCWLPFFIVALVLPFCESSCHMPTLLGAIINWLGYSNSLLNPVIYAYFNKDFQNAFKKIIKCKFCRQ
hERG channel, sequence (Q12809 whole entry): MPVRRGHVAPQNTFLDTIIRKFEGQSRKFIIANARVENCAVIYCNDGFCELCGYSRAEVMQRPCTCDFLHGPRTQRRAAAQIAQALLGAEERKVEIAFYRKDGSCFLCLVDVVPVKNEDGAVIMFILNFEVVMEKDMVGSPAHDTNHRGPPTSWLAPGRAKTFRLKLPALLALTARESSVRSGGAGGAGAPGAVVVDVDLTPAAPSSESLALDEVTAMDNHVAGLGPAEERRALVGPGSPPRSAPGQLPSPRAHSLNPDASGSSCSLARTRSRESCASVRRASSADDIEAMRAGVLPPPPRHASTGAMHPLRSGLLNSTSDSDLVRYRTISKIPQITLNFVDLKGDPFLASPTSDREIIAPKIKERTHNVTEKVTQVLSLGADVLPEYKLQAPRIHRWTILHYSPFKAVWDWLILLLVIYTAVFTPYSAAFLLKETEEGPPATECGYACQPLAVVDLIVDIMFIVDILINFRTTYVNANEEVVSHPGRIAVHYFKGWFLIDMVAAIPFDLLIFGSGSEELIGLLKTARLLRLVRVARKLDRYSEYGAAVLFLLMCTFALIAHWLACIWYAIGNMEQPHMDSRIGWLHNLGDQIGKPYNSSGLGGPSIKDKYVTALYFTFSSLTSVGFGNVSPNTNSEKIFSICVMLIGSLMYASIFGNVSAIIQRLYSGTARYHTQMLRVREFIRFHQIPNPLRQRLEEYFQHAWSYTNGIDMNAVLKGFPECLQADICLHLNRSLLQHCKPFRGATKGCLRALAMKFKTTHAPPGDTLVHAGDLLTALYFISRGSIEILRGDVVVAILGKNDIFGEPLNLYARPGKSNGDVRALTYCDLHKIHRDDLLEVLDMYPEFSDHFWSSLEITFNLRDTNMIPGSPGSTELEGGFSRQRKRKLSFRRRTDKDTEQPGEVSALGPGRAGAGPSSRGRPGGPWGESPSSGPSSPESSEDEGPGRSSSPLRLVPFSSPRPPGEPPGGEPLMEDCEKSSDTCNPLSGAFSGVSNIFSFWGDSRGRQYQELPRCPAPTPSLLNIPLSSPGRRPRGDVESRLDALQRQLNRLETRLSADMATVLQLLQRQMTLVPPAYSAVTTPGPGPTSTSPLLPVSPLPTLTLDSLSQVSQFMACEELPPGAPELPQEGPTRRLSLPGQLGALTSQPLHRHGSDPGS

| SMILES | Ki (human 5-HT1A receptor [1]) [nM] | Ki (human D2 receptor) [nM] | EC50 (human 5-HT1A receptor [2]) [nM] | Emax at 10 µM (human 5-HT1A receptor [2]) [%] | Metabolic stability in human hepatic microsome [3] [mL/min/mg protein] | IC50 (hERG channel) [nM] |
| --- | --- | --- | --- | --- | --- | --- |
| Cn1ccc2c1CCN(CCN1CCN(c3nsc4ccccc34)CC1)C2=O [Example 61] | 1.7 | 134 | 9.8 | 63 | 0.056 | > 10000 |
| Cc1nccc2c1C(=O)N(CCN1CCN(c3noc4ccccc34)CC1)CC2 [Example 85] | 101 | 1070 | 41.1 | 35 | 0.046 | > 10000 |
| Cc1cc2c(cn1)C(=O)N(CCN1CCN(c3noc4ccccc34)CC1)CC21CC1 [Example 21] | 8.62 | 2120 | 18 | 59 | 0.323 | 8000 |
| O=c1c2ncccc2ccn1CCN1CCN(c2noc3ccccc23)CC1 [Example 117] | 36.6 | 1740 | 570 | 40 | <0.05 | 4400 |
| CC1CN(CCN2CCC(c3noc4ccccc34)CC2)C(=O)c2ncccc21 (stereo not shown) [Example 15] | 0.51 | 1560 | 7.32 | 57 | 0.055 | 1600 |
| COc1c2c(nn1C)CCN(CCN1CCN(c3nsc4ccccc34)CC1)C2=O [Example 106, 5-{2-[4-(1,2-Benzoisothiazol-3-yl)piperazin-1-yl]ethyl}-3-methoxy-2-methyl-2,5,6,7-tetrahydro-4H-pyrazolo[4,3-c]pyridin-4-one] | 1.63 | 804 | 38.4 | 74 | 0.244 | 4800 |
| Cn1cc2c(n1)CCCN(CCN1CCN(c3nsc4ccccc34)CC1)C2=O [Example 42] | 2.19 | 119 | 23.5 | 57 | 0.100 | 2400 |
| Cn1cc2c(n1)C(=O)N(CCN1CCC(c3noc4ccccc34)CC1)CC2 [Example 156] | 5.17 | 743 | 31 | 46 | <0.05 | 2100 |
| O=C1c2cncnc2CCN1CCN1CCN(c2nsc3ccccc23)CC1 [Example 58] | 6.9 | 780 | 42.1 | 51 | 0.092 | 6000 |
| CC(C)c1ncc2c(=O)n(CCN3CCN(c4nsc5ccccc45)CC3)ccc2n1 [Example 181] | 48.6 | 3690 | 79 | 53 | 0.791 | – |
| O=C1c2cn[nH]c2CCN1CCN1CCC(c2noc3ccccc23)CC1 [Example 189, 5-{2-[4-(1,2-Benzoisoxazol-3-yl)piperidin-1-yl]ethyl}-1,5,6,7-tetrahydro-4H-pyrazolo[4,3-c]pyridin-4-one] | 98.4 | – | 690 | 49 | <0.05 | 1800 |
| Cc1ncc2c(=O)n(CCN3CCN(c4nsc5ccccc45)CC3)ccc2n1 [Example 95] | 7.91 | 2580 | 77.9 | 62 | 0.143 | – |
| CC(CN1CCC(c2noc3cc(F)ccc23)CC1)N1CCc2cccnc2C1=O (stereo not shown) [Example 122] | 24 | 537 | 121 | 23 | <0.05 | – |
| CC(C)c1nc2c(o1)C(=O)N(CCN1CCC(c3noc4ccccc34)CC1)CC2 [Example 164] | 11.7 | – | 69.5 | 48 | 0.097 | 1000 |
| O=c1c2cnccc2ccn1CCN1CCN(c2nsc3ccccc23)CC1 [Example 11] | 2.95 | 316 | – | – | 0.245 | 2600 |
| O=C1c2oc(C3CC3)nc2CCN1CCN1CCN(c2nsc3ccccc23)CC1 [Example 67] | 1.17 | – | 3.19 | 65 | 0.269 | 1600 |
| O=C1c2cnn(C3CC3)c2CCN1CCN1CCN(c2nsc3ccccc23)CC1 [Example 160] | 20.2 | 170 | 844 | 43 | 0.13 | – |
| O=c1c2cnc(C3CC3)nc2ccn1CCN1CCN(c2nsc3ccccc23)CC1 [Example 182] | 10.9 | 1400 | 7.85 | 40 | 0.726 | – |
| O=C1c2cnn(C3CC3)c2CCN1CCN1CCC(c2noc3ccccc23)CC1 [Example 161] | 203 | 216 | 6180 | 17 | <0.05 | – |
